Measured values as given in patent US11053204B2, “Pyrimidinyloxy benzene derivatives as herbicides” (FMC Corporation, priority 2015, dated 2021).

Legend:
Assay type in all cases: in vivo
kochia (Kochia scoparia) = experiment: Test C preemergence, plant response rating
[1] = system: nightshade (eastern black nightshade, Solanum ptycanthum); experiment: Test C preemergence, plant response rating
[2] = system: geranium, cutleaf (cutleaf geranium, Geranium dissectum); experiment: Test C postemergence, plant response rating; settings: for Geranium, Cutleaf plant response rating: scale 0 to 100 (0 no effect, 100 complete control)
Method in brief: (§1)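 Pre-emergence: seeds sown in loam soil–sand blend or silt loam and sprayed with test chemicals in a non-phytotoxic solvent mixture with surfactant. Post-emergence: plants 2 to 18 cm (1- to 4-leaf stage) in peat-based potting medium, same formulation. Greenhouse 13 to 15 d; visual rating 0 (no effect) to 100 (complete control) versus controls.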

[3] = system: wild mustard (Sinapis arvensis); experiment: Test C postemergence, plant response rating; settings: for Mustard, Wild plant response rating: scale 0 to 100 (0 no effect, 100 complete control)
Method in brief: as §1

[4] = system: windgrass (Apera spica-venti); experiment: Test C postemergence, plant response rating
Method in brief: as §1

[5] = system: surinam grass (Brachiaria decumbens); experiment: Test C postemergence, plant response rating
Method in brief: as §1

[6] = system: speedwell (bird's-eye speedwell, Veronica persica); experiment: Test C postemergence, plant response rating; settings: for Speedwell plant response rating: scale 0 to 100 (0 no effect, 100 complete control)
Method in brief: as §1

[7] = system: field violet (Viola arvensis); experiment: Test C postemergence, plant response rating; settings: for Field Violet plant response rating: scale 0 to 100 (0 no effect, 100 complete control)
Method in brief: as §1

[8] = system: pigweed, palmer (palmer pigweed, Amaranthus palmeri); experiment: Test C postemergence, plant response rating; settings: for Pigweed, Palmer plant response rating: scale 0 to 100 (0 no effect, 100 complete control)
Method in brief: as §1

[9] = system: Canada thistle (Cirsium arvense); experiment: Test C postemergence, plant response rating; settings: for Canada Thistle plant response rating: scale 0 to 100 (0 no effect, 100 complete control)
Method in brief: as §1

[10] = system: johnsongrass (Sorghum halepense); experiment: Test C postemergence, plant response rating; settings: for Johnsongrass plant response rating: scale 0 to 100 (0 no effect, 100 complete control)
Method in brief: as §1

[11] = system: field poppy (Papaver rhoeas); experiment: Test C postemergence, plant response rating; settings: for Field Poppy plant response rating: scale 0 to 100 (0 no effect, 100 complete control)
Method in brief: as §1

[12] = system: nightshade (eastern black nightshade, Solanum ptycanthum); experiment: Test C postemergence, plant response rating; settings: for Nightshade plant response rating: scale 0 to 100 (0 no effect, 100 complete control)
Method in brief: as §1

[13] = system: wild poinsettia (Euphorbia heterophylla); experiment: Test C postemergence, plant response rating; settings: for Poinsettia, Wild plant response rating: scale 0 to 100 (0 no effect, 100 complete control)
Method in brief: as §1

[14] = system: buckwheat, wild (wild buckwheat, Polygonum convolvulus); experiment: Test C postemergence, plant response rating; settings: for Buckwheat, Wild plant response rating: scale 0 to 100 (0 no effect, 100 complete control)
Method in brief: as §1

[15] = system: barnyardgrass (Echinochloa crus-galli); experiment: Test C preemergence, plant response rating; settings: Preemergence
[16] = system: galium (catchweed bedstraw, Galium aparine); experiment: Test C preemergence, plant response rating
[17] = system: windgrass (Apera spica-venti); experiment: Test C preemergence, plant response rating
[18] = system: johnsongrass (Sorghum halepense); experiment: Test C preemergence, plant response rating
[19] = system: pigweed, palmer (palmer pigweed, Amaranthus palmeri); experiment: Test C preemergence, plant response rating
[20] = 125 g ai/ha, scale 0 to 100 (0 no effect, 100 complete control)

N#CC(CCCC(F)(F)F)c1ccccc1Oc1ncc(Cl)cn1 (stereo not drawn) [Compound 144]
10: Plant response rating, Windgrass ([4]; 16 g ai/ha, scale of 0 to 100) | Plant response rating, Windgrass ([4]; 31 g ai/ha, scale 0 to 100) | Plant response rating, Surinam Grass ([5]; 16 g ai/ha, scale of 0 to 100) | Plant response rating, Barnyardgrass ([15]; 16 g ai/ha, scale 0 to 100) | Plant response rating, Johnsongrass ([18]; 31 g ai/ha, scale 0 to 100)
5: Plant response rating, Johnsongrass ([10]; 16 g ai/ha, scale of 0 to 100) | Plant response rating, Johnsongrass ([10]; 31 g ai/ha, scale 0 to 100) | Johnsongrass plant response rating ([10]; 62 g ai/ha) | Johnsongrass plant response rating ([10]; 125 g ai/ha)
15: Plant response rating, Geranium, Cutleaf ([2]; 16 g ai/ha, scale of 0 to 100)
55: Plant response rating, Buckwheat, Wild ([14]; 31 g ai/ha, scale 0 to 100) | Plant response rating, Galium ([16]; 125 g ai/ha, scale of 0 to 100)
30: Windgrass plant response rating [4, 20] | Plant response rating, Poinsettia, Wild ([13]; 16 g ai/ha, scale of 0 to 100) | Plant response rating, Windgrass ([17]; 31 g ai/ha, scale 0 to 100)
65: Plant response rating, Nightshade ([1]; 31 g ai/ha, scale 0 to 100) | Plant response rating, Field Violet ([7]; 31 g ai/ha, scale 0 to 100) | Plant response rating, Nightshade ([12]; 16 g ai/ha, scale of 0 to 100)
95: Mustard, Wild plant response rating ([3]; 125 g ai/ha) | Speedwell plant response rating ([6]; 62 g ai/ha) | Speedwell plant response rating ([6]; 125 g ai/ha) | Buckwheat, Wild plant response rating ([14]; 125 g ai/ha) | Plant response rating, Barnyardgrass ([15]; 125 g ai/ha, scale of 0 to 100)
75: Plant response rating, Nightshade ([12]; 31 g ai/ha, scale 0 to 100) | Nightshade plant response rating ([12]; 62 g ai/ha)
40: Geranium, Cutleaf plant response rating ([2]; 125 g ai/ha) | Pigweed, Palmer plant response rating ([8]; 62 g ai/ha) | Plant response rating, Barnyardgrass ([15]; 31 g ai/ha, scale 0 to 100) | Plant response rating, Johnsongrass ([18]; 62 g ai/ha, scale 0 to 100)
50: Poinsettia, Wild plant response rating ([13]; 62 g ai/ha) | Plant response rating, Galium ([16]; 31 g ai/ha, scale 0 to 100) | Plant response rating, Galium ([16]; 62 g ai/ha, scale 0 to 100)
60: Plant response rating, Speedwell ([6]; 16 g ai/ha, scale of 0 to 100) | Plant response rating, Field Violet ([7]; 16 g ai/ha, scale of 0 to 100) | Plant response rating, Canada Thistle ([9]; 31 g ai/ha, scale 0 to 100) | Plant response rating, Field Poppy ([11]; 16 g ai/ha, scale of 0 to 100) | Poinsettia, Wild plant response rating ([13]; 125 g ai/ha)
35: Geranium, Cutleaf plant response rating ([2]; 62 g ai/ha) | Plant response rating, Pigweed, Palmer ([8]; 31 g ai/ha, scale 0 to 100) | Plant response rating, Poinsettia, Wild ([13]; 31 g ai/ha, scale 0 to 100)
25: Surinam Grass plant response rating [5, 20] | Plant response rating, Pigweed, Palmer ([8]; 16 g ai/ha, scale of 0 to 100)
70: Plant response rating, Mustard, Wild ([3]; 16 g ai/ha, scale of 0 to 100) | Plant response rating, Mustard, Wild ([3]; 31 g ai/ha, scale 0 to 100) | Plant response rating, Speedwell ([6]; 31 g ai/ha, scale 0 to 100) | Plant response rating, Buckwheat, Wild ([14]; 16 g ai/ha, scale of 0 to 100) | Plant response rating, Barnyardgrass ([15]; 62 g ai/ha, scale 0 to 100) | Plant response rating, Johnsongrass ([18]; 125 g ai/ha, scale of 0 to 100)
80: Mustard, Wild plant response rating ([3]; 62 g ai/ha) | Field Violet plant response rating ([7]; 62 g ai/ha) | Pigweed, Palmer plant response rating ([8]; 125 g ai/ha) | Plant response rating, Field Poppy ([11]; 31 g ai/ha, scale 0 to 100) | Buckwheat, Wild plant response rating ([14]; 62 g ai/ha) | Plant response rating, Windgrass ([17]; 62 g ai/ha, scale 0 to 100)
100: Plant response rating, Kochia (kochia (Kochia scoparia); 62 g ai/ha, scale 0 to 100) | Plant response rating, Kochia (kochia (Kochia scoparia); 125 g ai/ha, scale of 0 to 100) | Plant response rating, Nightshade ([1]; 125 g ai/ha, scale of 0 to 100) | Field Poppy plant response rating ([11]; 125 g ai/ha) | Plant response rating, Pigweed, Palmer ([19]; 31 g ai/ha, scale 0 to 100) | Plant response rating, Pigweed, Palmer ([19]; 62 g ai/ha, scale 0 to 100) | Plant response rating, Pigweed, Palmer ([19]; 125 g ai/ha, scale of 0 to 100)
90: Plant response rating, Kochia (kochia (Kochia scoparia); 31 g ai/ha, scale 0 to 100) | Plant response rating, Nightshade ([1]; 62 g ai/ha, scale 0 to 100) | Field Violet plant response rating ([7]; 125 g ai/ha) | Plant response rating, Canada Thistle ([9]; 16 g ai/ha, scale of 0 to 100) | Canada Thistle plant response rating ([9]; 62 g ai/ha) | Canada Thistle plant response rating ([9]; 125 g ai/ha) | Field Poppy plant response rating ([11]; 62 g ai/ha) | Nightshade plant response rating ([12]; 125 g ai/ha) | Plant response rating, Windgrass ([17]; 125 g ai/ha, scale of 0 to 100)
20: Plant response rating, Geranium, Cutleaf ([2]; 31 g ai/ha, scale 0 to 100) | Plant response rating, Surinam Grass ([5]; 31 g ai/ha, scale 0 to 100)
